# Entries after “also recorded” stand apart in the source; their conditions may differ. Where no end group is shown, it is not given here.
# What was measured:
# Aspergillus niger spores = format: cell-based; set-up: key: an N indicates that no activity was observed
# [1] = tested on: Fusarium oxysporum spores; format: cell-based
# Micrococcus luteus = format: cell-based
# [2] = tested on: Fusarium graminearum spores; format: cell-based
# F. oxysporum mycelia = format: cell-based, Fusarium oxysporum
# Escherichia coli = format: cell-based
# [3] = tested on: Leptosphaeria maculans spores; format: cell-based
# [4] = tested on: Colletotrichum gloeosporioides spores; format: cell-based; set-up: key: an N indicates that no activity was observed
# F. graminearum mycelia = format: cell-based, Fusarium graminearum
# Ascochyta rabiei spores = format: cell-based
# Candida albicans = assay: NCCLS M27-A2 microbroth dilution method; format: cell-based; conditions: synthetic peptide; C. albicans; tested at 0.125-64 μg/ml; read at 24, 48 or 72 hours
# Procedure: (§1) Synthetic Gm-moricinA was also tested against six yeast species using the NCCLS M27-A2 microbroth dilution method at the Women's and Children's Hospital (Adelaide, Australia). The yeasts tested were Candida albicans, C. parapsilosis, C. glabrata, C. krusei, C. tropicalis and Cryptococcus neoformans. The peptide was tested at 0.125-64 μg/ml, with each yeast species tested in duplicate. Trays were read at 24, 48 or 72 hours as appropriate.
# C. glabrata = assay: NCCLS M27-A2 microbroth dilution method; format: cell-based; conditions: synthetic peptide, tested at 0.125-64 μg/ml
# Procedure: as §1
# C. krusei = assay: NCCLS M27-A2 microbroth dilution method; format: cell-based; conditions: synthetic peptide, tested at 0.125-64 μg/ml
# Procedure: as §1
# Cryptococcus neoformans = assay: NCCLS M27-A2 microbroth dilution method; format: cell-based; conditions: synthetic peptide; C. neoformans; tested at 0.125-64 μg/ml
# Procedure: as §1
# C. parapsilosis = assay: NCCLS M27-A2 microbroth dilution method; format: cell-based; conditions: synthetic peptide, tested at 0.125-64 μg/ml
# Procedure: as §1
# C. tropicalis = assay: NCCLS M27-A2 microbroth dilution method; format: cell-based; conditions: synthetic peptide, tested at 0.125-64 μg/ml
# Procedure: as §1
Substance,"lowest concentration at which activity was observed in the zone inhibition assay, Ani (Aspergillus niger spores)","lowest concentration at which activity was observed in the zone inhibition assay, Fox [1] [µM]","lowest concentration at which activity was observed in the zone inhibition assay, Mlu (Micrococcus luteus) [µM]",activity against F. graminearum [2],"lowest concentration at which activity was observed in the zone inhibition assay, Fgr [2] [µM]","lowest concentration at which activity was observed in the zone inhibition assay, Fom (F. oxysporum mycelia) [µM]","lowest concentration at which activity was observed in the zone inhibition assay, Eco (Escherichia coli) [µM]","lowest concentration at which activity was observed in the zone inhibition assay, Lma [3] [µM]","lowest concentration at which activity was observed in the zone inhibition assay, Cgl [4]","lowest concentration at which activity was observed in the zone inhibition assay, Fgm (F. graminearum mycelia) [µM]","lowest concentration at which activity was observed in the zone inhibition assay, Ara (Ascochyta rabiei spores) [µM]",activity against A. rabiei (Ascochyta rabiei spores),MIC90 (Candida albicans) [µg/mL],MIC90 (C. glabrata) [µg/mL],MIC90 (C. krusei) [µg/mL],MIC90 (Cryptococcus neoformans) [µg/mL],MIC90 (C. parapsilosis) [µg/mL],MIC90 (C. tropicalis) [µg/mL],activity against L. maculans [3]
"Gm-moricinB: Antifungal moricin-like peptide from Galleria mellonella, SEQ ID NO:5 (GGQIIGKALRGINIASTAHDIISQFKPKKKKNH; listed as Galleria mellonella)",N,100,100,showed activity,10,280,100,100,N,280,–,–,–,–,–,–,–,–,–
"Gm-moricinC2: Moricin-like peptide from Galleria mellonella, SEQ ID NO:53, synthesised (KVPIGAIKKGGKIIKKGLGVLGAAGTAHEVYNHVRNRQ; listed as Galleria mellonella)",N,–,100,–,1,10,10,10,–,10,–,–,–,–,–,–,–,–,–
"Gm-moricinC1: Antifungal moricin-like peptide purified from Galleria mellonella hemolymph, SEQ ID NO:48 (KVPIGAIKKGGKIIKKGLGVIGAAGTAHEVYSHVKNRH; listed as Galleria mellonella)",–,–,–,had activity,–,–,–,–,–,–,–,–,–,–,–,–,–,–,–
Bm-moricin: Synthetic B. mori moricin (residues 25 to 66 of SEQ ID NO:16) (AKIPIKAIKTVGKAVGKGLRAINIASTANDVFNFLKPKKRKH; listed as Bombyx mori) [reference compound],N,100,10,–,10,100,10,100,N,180,100,–,–,–,–,–,–,–,–
KVNVNAIKKGGKAIGKGFKVISAASTAHDVYEHIKNRRH [Gm-moricinA],N,10,10,had activity; also recorded: showed activity,1,10,10,10,N,100,1,showed activity,64.0,64.0,8.0,4.0,4.0,4.0,showed activity
